From US8309552B2, “Immunomodulating heterocyclic compounds” (Medigene AG, priority 2003, dated 2012) come the findings set out here.

The target of the first assay is T1, CD80-CD28 interaction (Homo sapiens, UniProt P33681).
T1 sequence (P33681 35-242 limits assumed): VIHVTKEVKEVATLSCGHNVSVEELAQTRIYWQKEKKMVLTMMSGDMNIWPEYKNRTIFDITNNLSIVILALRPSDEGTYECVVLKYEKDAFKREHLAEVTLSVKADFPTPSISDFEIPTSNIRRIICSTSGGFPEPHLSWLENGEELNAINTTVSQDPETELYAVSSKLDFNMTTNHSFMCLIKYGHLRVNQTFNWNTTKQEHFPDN
Description: Homogenous Time Resolved Fluorescence (HTRF) assay, cell free. It counts as binding. To be noted: cell free HTRF assay; concentration series 100 μM-1.7 nM; 4 hours at room temperature; read-out: Activity (EC50 in the HTRF assay). A digest of the protocol: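 In pH7.8 Tris-HCl/NaCl buffer with 0.1% BSA, a 100 μM-1.7 nM compound series was incubated for 4 h at room temperature with CD28 and CD80 fusions carrying europium and APC via linker antibodies. Time-resolved signals at 665 and 615 nm were read after 340 nm excitation; a C215 Fab swap defined background. EC50 given as banded classes.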
What is called EC50 is the midpoint of the concentration-response curve. For the compound `CCC(CC)CNC(=O)Nc1ccc(-n2[nH]c3c(nnc4ccccc43)c2=O)cc1` [Example 221], the 50% effective concentration (EC50) is above 10 µM. Still for that read-out and setting: then `CC(=O)NCCCCNC(=O)Nc1ccc(-n2[nH]c3c(nnc4ccccc43)c2=O)cc1` [Example 222], with below 1 µM; and `CC(C)(C)OC(=O)CCNC(=O)Nc1ccc(-n2[nH]c3c(nnc4ccccc43)c2=O)cc1` [Example 223], with 1 to 10 µM; and `O=C(NCCN1CCC(Cc2ccccc2)CC1)Nc1ccc(-n2[nH]c3c(nnc4ccccc43)c2=O)cc1` [Example 224], with below 1 µM. Same read-out and setting: as for `COc1ccc(OCCNC(=O)Nc2ccc(-n3[nH]c4c(nnc5ccccc54)c3=O)cc2)cc1` [Example 225], the figure is above 10 µM; as for `O=C(Nc1ccc(-n2[nH]c3c(nnc4ccccc43)c2=O)cc1)NC1Cc2ccccc2C1` [Example 226], above 10 µM. The same measure, in the same setting: as for `O=C(NCCSc1cc(C(F)(F)F)nc2ccccc12)Nc1ccc(-n2[nH]c3c(nnc4ccccc43)c2=O)cc1` [Example 227], the figure is above 10 µM; as for `O=C(NCCCCN1CCCC1)Nc1ccc(-n2[nH]c3c(nnc4ccccc43)c2=O)cc1` [Example 228], below 1 µM. Regarding `O=C(NCCCN1CCCC1)Nc1ccc(-n2[nH]c3c(nnc4ccccc43)c2=O)cc1` [Example 229], the half-maximal effective concentration (EC50) is below 1 µM. On to `CN(C)CCCNC(=O)c1ccc(-n2[nH]c3c(nnc4c(F)cccc43)c2=O)cc1` [Example 232], for which the EC50 was below 1 µM.

Staying with this assay, now noted: cell-free HTRF, compound concentration series 100 μM-1.7 nM, 4 hours at room temperature; read-out: Activity (EC50 in the HTRF assay).
Regarding `CC(C)(C)OC(=O)NCCCCCCNC(=O)Nc1ccc(-n2[nH]c3c(nnc4ccccc43)c2=O)cc1` [Example 163], the half-maximal effective concentration (EC50) was in the range of 1 to 10 µM. Same read-out and setting: then `CCOC(=O)C1CCCC1NC(=O)Nc1ccc(-n2[nH]c3c(nnc4ccccc43)c2=O)cc1` (stereo not drawn) [Example 164], with above 10 µM. In the case of `C=C(C)CNC(=O)Nc1ccc(-n2[nH]c3c(nnc4ccccc43)c2=O)cc1` [Example 165], the EC50 lay in the range of 1 to 10 µM. On the same count and under the same terms, as for `O=C(Nc1ccc(-n2[nH]c3c(nnc4ccccc43)c2=O)cc1)NC1CCOC1=O` (stereo not drawn) [Example 166], the figure is 1 to 10 µM.

In the case of `CCC(C)NC(=O)Nc1ccc(-n2[nH]c3c(nnc4ccccc43)c2=O)cc1` (stereo not drawn) [Example 167], the EC50 is 1 to 10 µM.

Take `CCN(CC)CCCC(C)NC(=O)Nc1ccc(-n2[nH]c3c(nnc4ccccc43)c2=O)cc1` (stereo not drawn) [Example 168]: the EC50 is below 1 µM.

In the case of `O=C(Nc1ccc(-n2[nH]c3c(nnc4ccccc43)c2=O)cc1)NC1CN2CCC1CC2` (stereo not drawn) [Example 169], the EC50 is below 1 µM. Same read-out and setting: as for `O=CCCNC(=O)Nc1ccc(-n2[nH]c3c(nnc4ccccc43)c2=O)cc1` [Example 170], the figure is above 10 µM; as for `CC(O)CCNC(=O)Nc1ccc(-n2[nH]c3c(nnc4ccccc43)c2=O)cc1` (stereo not drawn) [Example 171], below 1 µM. The same measure, in the same setting: as for `COc1ccc2[nH]cc(CCNC(=O)Nc3ccc(-n4[nH]c5c(nnc6ccccc65)c4=O)cc3)c2c1` [Example 172], the figure is 1 to 10 µM; as for `CC(C)C(C)NC(=O)Nc1ccc(-n2[nH]c3c(nnc4ccccc43)c2=O)cc1` (stereo not drawn) [Example 173], 1 to 10 µM; as for `COCC(C)NC(=O)Nc1ccc(-n2[nH]c3c(nnc4ccccc43)c2=O)cc1` (stereo not drawn) [Example 174], 1 to 10 µM. Same read-out and setting: then `CCOC(=O)CC(C)NC(=O)Nc1ccc(-n2[nH]c3c(nnc4ccccc43)c2=O)cc1` (stereo not drawn) [Example 175], with 1 to 10 µM. As to `CCN(CC)CCCNC(=O)c1ccc(-n2[nH]c3c(nnc4ccccc43)c2=O)cc1` [Example 176], the EC50 is below 1 µM. The same measure, in the same setting: then `CCCCNC(=O)Nc1ccc(-n2[nH]c3c(nnc4ccccc43)c2=O)cc1` [Example 177], with 1 to 10 µM.

Take `CSCCNC(=O)Nc1ccc(-n2[nH]c3c(nnc4ccccc43)c2=O)cc1` [Example 178]: the EC50 was in the range of 1 to 10 µM. On the same count and under the same terms, then `O=C(NCCCN1CCOCC1)Nc1ccc(-n2[nH]c3c(nnc4ccccc43)c2=O)cc1` [Example 179], with below 1 µM; and `O=C(NCCSCc1c(F)cccc1Cl)Nc1ccc(-n2[nH]c3c(nnc4ccccc43)c2=O)cc1` [Example 180], with above 10 µM. `CCCCCC(C)NC(=O)Nc1ccc(-n2[nH]c3c(nnc4ccccc43)c2=O)cc1` (stereo not drawn) [Example 181]: the EC50 was above 10 µM. On the same count and under the same terms, as for `CN1CCC(NC(=O)Nc2ccc(-n3[nH]c4c(nnc5ccccc54)c3=O)cc2)CC1` [Example 183], the figure is below 1 µM; as for `O=C(NCCc1ccncc1)Nc1ccc(-n2[nH]c3c(nnc4ccccc43)c2=O)cc1` [Example 184], 1 to 10 µM; as for `CN(C)CC(C)(C)CNC(=O)Nc1ccc(-n2[nH]c3c(nnc4ccccc43)c2=O)cc1` [Example 185], below 1 µM.

For `CC1CCCCN1CCCNC(=O)Nc1ccc(-n2[nH]c3c(nnc4ccccc43)c2=O)cc1` (stereo not drawn) [Example 186], the EC50 was below 1 µM. The same measure, in the same setting: then `CCC(CC)NC(=O)Nc1ccc(-n2[nH]c3c(nnc4ccccc43)c2=O)cc1` [Example 187], with 1 to 10 µM. On the same count and under the same terms, as for `O=C(NCCCCc1ccccc1)Nc1ccc(-n2[nH]c3c(nnc4ccccc43)c2=O)cc1` [Example 188], the figure is above 10 µM; as for `CCOC(=O)CCC(NC(=O)Nc1ccc(-n2[nH]c3c(nnc4ccccc43)c2=O)cc1)C(=O)OCC` (stereo not drawn) [Example 189], 1 to 10 µM; as for `O=C(Nc1ccc(-n2[nH]c3c(nnc4ccccc43)c2=O)cc1)NC1CCC(O)CC1` (stereo not drawn) [Example 190], 1 to 10 µM. Same read-out and setting: then `CCOC(=O)CCCNC(=O)Nc1ccc(-n2[nH]c3c(nnc4ccccc43)c2=O)cc1` [Example 192], with above 10 µM. With `O=C(NCCNCc1ccccc1)Nc1ccc(-n2[nH]c3c(nnc4ccccc43)c2=O)cc1` [Example 193], the EC50 is below 1 µM.

In the case of `CC(NC(=O)Nc1ccc(-n2[nH]c3c(nnc4ccccc43)c2=O)cc1)C1CCCCC1` (stereo not drawn) [Example 194], the 50% effective concentration (EC50) is above 10 µM.

Regarding `O=C(Nc1ccc(-n2[nH]c3c(nnc4ccccc43)c2=O)cc1)NC1CCOC1=O` (stereo not drawn) [Example 195], the EC50 lay within 1 to 10 µM. Still for that read-out and setting: then `O=C(NCCc1ccccn1)Nc1ccc(-n2[nH]c3c(nnc4ccccc43)c2=O)cc1` [Example 196], with 1 to 10 µM. The same measure, in the same setting: then `O=C(Nc1ccc(-n2[nH]c3c(nnc4ccccc43)c2=O)cc1)NC1CCCN(Cc2ccccc2)C1` (stereo not drawn) [Example 197], with 1 to 10 µM; and `O=C(NCC1CCCO1)Nc1ccc(-n2[nH]c3c(nnc4ccccc43)c2=O)cc1` (stereo not drawn) [Example 198], with 1 to 10 µM. On the same count and under the same terms, then `O=C(Nc1ccc(-n2[nH]c3c(nnc4ccccc43)c2=O)cc1)NC1CC2CCC1C2` (stereo not drawn) [Example 199], with above 10 µM; and `O=C(NCCSCc1ccccc1)Nc1ccc(-n2[nH]c3c(nnc4ccccc43)c2=O)cc1` [Example 200], with above 10 µM. Regarding `CC1C(NC(=O)Nc2ccc(-n3[nH]c4c(nnc5ccccc54)c3=O)cc2)CC2CC1C2(C)C` (stereo not drawn) [Example 201], the EC50 is above 10 µM. Still for that read-out and setting: then `CC1C(NC(=O)Nc2ccc(-n3[nH]c4c(nnc5ccccc54)c3=O)cc2)CC2CC1C2(C)C` (stereo not drawn) [Example 202], with above 10 µM. With `CCCC(C)NC(=O)Nc1ccc(-n2[nH]c3c(nnc4ccccc43)c2=O)cc1` (stereo not drawn) [Example 203], the EC50 is above 10 µM.

On to `O=C(NCC1CCCCCC1)Nc1ccc(-n2[nH]c3c(nnc4ccccc43)c2=O)cc1` [Example 204], for which the EC50 is above 10 µM.

In the case of `CC(C)(C)OC(=O)CNC(=O)Nc1ccc(-n2[nH]c3c(nnc4ccccc43)c2=O)cc1` [Example 205], the EC50 is above 10 µM. In the case of `CCCCN(CCCC)CCNC(=O)Nc1ccc(-n2[nH]c3c(nnc4ccccc43)c2=O)cc1` [Example 206], the EC50 is below 1 µM. For `CCCCC(C)NC(=O)Nc1ccc(-n2[nH]c3c(nnc4ccccc43)c2=O)cc1` (stereo not drawn) [Example 207], the EC50 fell in the range of 1 to 10 µM.

For `O=C(NCCOc1ccccc1)Nc1ccc(-n2[nH]c3c(nnc4ccccc43)c2=O)cc1` [Example 208], the EC50 was 1 to 10 µM.

With `C=C(C)C(=O)OCCNC(=O)Nc1ccc(-n2[nH]c3c(nnc4ccccc43)c2=O)cc1` [Example 209], the concentration giving a half-maximal response (EC50) is above 10 µM. Still for that read-out and setting: as for `COCC(C)NC(=O)Nc1ccc(-n2[nH]c3c(nnc4ccccc43)c2=O)cc1` (stereo not drawn) [Example 210], the figure is below 1 µM; as for `O=C(Nc1ccc(-n2[nH]c3c(nnc4ccccc43)c2=O)cc1)NC1CCCC1OCc1ccccc1` (stereo not drawn) [Example 211], above 10 µM. The same measure, in the same setting: then `O=C(Nc1ccc(-n2[nH]c3c(nnc4ccccc43)c2=O)cc1)NC1CCCCC1OCc1ccccc1` (stereo not drawn) [Example 212], with above 10 µM; and `CC(C)(C)OC(=O)NCCCNC(=O)Nc1ccc(-n2[nH]c3c(nnc4ccccc43)c2=O)cc1` [Example 213], with 1 to 10 µM; and `O=C(Nc1ccc(-n2[nH]c3c(nnc4ccccc43)c2=O)cc1)NC1CCN(Cc2ccccc2)C1` (stereo not drawn) [Example 214], with below 1 µM. In the case of `CCCCOC(=O)CNC(=O)Nc1ccc(-n2[nH]c3c(nnc4ccccc43)c2=O)cc1` [Example 215], the EC50 is above 10 µM. With `CCCCCOC(=O)CNC(=O)Nc1ccc(-n2[nH]c3c(nnc4ccccc43)c2=O)cc1` [Example 216], the EC50 is above 10 µM. For `O=C(NCCc1cccnc1)Nc1ccc(-n2[nH]c3c(nnc4ccccc43)c2=O)cc1` [Example 217], the EC50 was in the range of 1 to 10 µM. Still for that read-out and setting: then `CC(C)CCC(C)NC(=O)Nc1ccc(-n2[nH]c3c(nnc4ccccc43)c2=O)cc1` (stereo not drawn) [Example 218], with above 10 µM; and `O=C(NCCCCCNC(=O)OCc1ccccc1)Nc1ccc(-n2[nH]c3c(nnc4ccccc43)c2=O)cc1` [Example 219], with 1 to 10 µM; and `CC(C)(C)OC(=O)NCCCCNC(=O)Nc1ccc(-n2[nH]c3c(nnc4ccccc43)c2=O)cc1` [Example 220], with above 10 µM.
